From article PMC5537305, “Photo-enhanced Aqueous Solubilization of an Azo-compound” (Scientific Reports, 2017)
Values joined by “and” are separate entries in the source; they are usually repeats but may differ in a detail not shown here. Equal values may be shown once. Read-outs that look alike come from different tables or passages of the source.

Columns and labels:
[1] = Photoinduced cis-trans isomerization of 3 in water containing 1% MeOH (HPLC peak areas); assay type: physicochemical
Experimental: To confirm the potential usefulness of this strategy for improving aqueous solubility, we focused on kinase inhibitor 3 [31] (Fig. S2) as representative of pharmaceutical compounds, because the 518 human protein kinases include important drug targets, and the molecular structures of many kinase inhibitors tend to be rather similar. […]
Table S2. Photoinduced isomerization of 3
Light Time (min) cis ratio (%) trans ratio (%)
Compound 3 (10 µM) in a mixture of water and MeOH (1%) was successively exposed to white light and to a 365 nm mercury lamp (0.5 mW/cm2). The cis-trans ratio was calculated from the peak areas in HPLC. […]
Physicochemical properties
The UV-visible absorption spectra of the cis and trans isomers were determined on a UV-visible spectrometer (Shimano, UV-2400PC). Sample solutions in quartz cells were irradiated with a 365 nm mercury lamp (4 W, UVP compact UV lamp, 0.5 mW/cm2), LED UV light (3.3 W, CCS HLV-24UV365-4WNRBTNJ, 344 mW/cm2), or white LED light (5 W, Nikki Trading Corp., NLSS05BM, 68 and 54 mW/cm2 at 450 and 540 nm, respectively) for the indicated times at room temperature. […]

[2] = Aqueous solubilization in 1/15 M phosphate buffer (pH 7.4) under UV, visible light or dark, with cis ratio in solution by HPLC; assay type: physicochemical; settings: for increase of aqueous solubilization, UV irradiation vs dark: mercury lamp 0.5 mW/cm2; for Aqueous solubilized 3: successive irradiations
Experimental: Table S3. Cis ratio and aqueous solubilization of 3 under UV irradiation, under visible light irradiation, and in […]
Compound 3 was shaken at 37 °C under UV irradiation, under visible light irradiation, and in the dark. UV irradiation was performed with a mercury lamp (0.5 mW/cm2). Cis ratio in the aqueous solution was evaluated from the peak areas in HPLC immediately after filtration.
Table S4. Aqueous solubilization and cis ratio of 3 under irradiation at various wavelengths through filters of […]
Illumination was performed with a xenon lamp using repeated cycles of irradiation and shaking (5000 flashes, then shaking for 10 sec) through filters of various bandwidths at room temperature (20-22 °C) for 1 h. The cis ratio in the aqueous solution was evaluated by HPLC immediately after filtration, based on peak area.
Table S5. Aqueous solubilization of 3 under UV irradiation at various intensity levels.
Sample irradiation was conducted using 365 nm LED light (max light intensity: 290 mW/cm2) at 37 °C for 1 […]
Sample irradiations were conducted with the white light through a filter cutting off wavelengths below 560 nm, or with 365 nm LED light (344 mW/cm2) at 37 °C for 1 h.
Table S7. Aqueous dissolution of UV-irradiated crystals of 3 measured in the dark, and the cis ratio contained […]
Crystals of 3 were irradiated with 365 nm LED light (344 mW/cm2) at 37 °C for 3 h.
The UV-irradiated crystals and unirradiated crystals were each shaken in phosphate buffer in the dark at 37 °C for 1 h.
Physicochemical properties […]
Compound 3 (about 0.2 mg) was ground and taken up in 1/15 M phosphate buffer (pH 7.4, 1.0 mL) in a 10 mL glass tube. The suspension was incubated under ultrasound irradiation for 10 min, and shaken in a temperature controllable incubator located in a dark room for the indicated time at the indicated temperature.
With shaking on a plate shaker, a sample was irradiated with a 365 nm mercury lamp (4 W, UVP compact […]
white LED light (5 W, Nikki Trading Corp., NLSS05BM, 68 and 54 mW/cm2 at 450 and 540 nm, respectively) through a filter cutting off wavelengths below 560 nm (Atto Corp. YA-3). Irradiation was done from the top of the sample glass tube. Then, the suspension was filtered through a Millipore Millex-LG (0.20 […]
For irradiation at various UV wavelengths, 3 (about 0.1 mg) was ground and taken up in 1/15 M phosphate buffer (pH 7.4, 0.2 mL) in a well of a 96-well white plate. Illumination over a range of wavelength from 355-540 nm was performed using a plate reader EnVision equipped with a xenon flash lamp (35 W, 500 Hz), with excitation filters of appropriate bandwidths.

[3] = 10 µM in water/MeOH (1%), step 1: visible (white light) 10 min
[4] = step 2: UV 365 nm mercury lamp 0.5 mW/cm2, 10 min
[5] = step 4: UV 10 min (second UV exposure)

For `CC(C)n1nc(/N=N/c2ccccc2)c2c(N)ncnc21` [Compound 3], which cis ratio [1, 3] is on record?
The cis ratio was 20.3%.

And the trans ratio [1, 3]?
The trans ratio was 79.7%.

What about the cis ratio [1, 4] of the same molecule?
The cis ratio was 84.8%.

And the trans ratio [1, 4]?
The trans ratio was 15.2%.

What about the cis ratio ([1]; step 3: visible 12 min) of the same molecule?
Its cis ratio is 18.3%.

What about the trans ratio ([1]; step 3: visible 12 min) of the same molecule?
The trans ratio was 81.7%.

What about the cis ratio [1, 5] of the same molecule?
The cis ratio was 86.9%.

What about the trans ratio [1, 5] of the same molecule?
Its trans ratio is 13.1%.

And the cis ratio ([1]; step 5: visible 20 min)?
Its cis ratio is 19.4%.

What about the trans ratio ([1]; step 5: visible 20 min) of the same molecule?
The trans ratio was 80.6%.

What about the “cis ratio in solution after UV irradiation” value ([2]; 365 nm LED, roughly constant, independent of light intensity) of the same molecule?
Its value is about 90%.

And the “increase of aqueous solubilization, UV irradiation vs dark” value (from here on “increase … vs dark”) ([2]; 0.5 h, 37 °C)?
Its value is 3.5 fold.

And the “increase … vs dark” value ([2]; 1 h, 37 °C)?
Its value is 5.0 fold.

What about the “increase … vs dark” value ([2]; 5 h, 37 °C) of the same molecule?
The value was 7.1 fold and 7 fold.

What about the cis ratio ([2]; Dark, 37 °C, shake time 0.5 h) of the same molecule?
The cis ratio was 6%.

What about the cis ratio ([2]; Dark, 37 °C, shake time 1 h) of the same molecule?
The cis ratio was 4%.

What about the cis ratio ([2]; Dark, 37 °C, shake time 5 h) of the same molecule?
The cis ratio was 7%.

What about the cis ratio ([2]; UV light (mercury lamp 0.5 mW/cm2), 37 °C, shake time 0.5 h) of the same molecule?
Its cis ratio is 77%.

And the cis ratio ([2]; UV light (mercury lamp 0.5 mW/cm2), 37 °C, shake time 1 h)?
Its cis ratio is 80%.

And the cis ratio ([2]; UV light (mercury lamp 0.5 mW/cm2), 37 °C, shake time 3 h)?
Its cis ratio is 80%.

What about the cis ratio ([2]; UV light (mercury lamp 0.5 mW/cm2), 37 °C, shake time 5 h) of the same molecule?
The cis ratio was 75%.

What about the cis ratio ([2]; UV light (mercury lamp 0.5 mW/cm2), 37 °C, shake time 8 h) of the same molecule?
Its cis ratio is 87%.

What about the cis ratio ([2]; Visible light, 37 °C, shake time 1 h) of the same molecule?
Its cis ratio is 25%.

What about the cis ratio ([2]; Visible light, 37 °C, shake time 5 h) of the same molecule?
Its cis ratio is 25%.

And the cis ratio ([2]; light intensity 0.00 mW/cm2, 365 nm LED, 37 °C, 1 h)?
The cis ratio was 4%.

And the cis ratio ([2]; light intensity 4.56 mW/cm2, 365 nm LED, 37 °C, 1 h)?
Its cis ratio is 89%.

And the cis ratio ([2]; light intensity 29.0 mW/cm2, 365 nm LED, 37 °C, 1 h)?
Its cis ratio is 92%.

And the cis ratio ([2]; light intensity 290 mW/cm2, 365 nm LED, 37 °C, 1 h)?
Its cis ratio is 90%.

What about the “increase of aqueous solubilization compared with the dark condition” value ([2]; maximum irradiation intensity 290 mW/cm2, 365 nm LED, 37 °C, 1 h) of the same molecule?
Its value is 23 fold.

And the “increase of aqueous solubilization by exposure to UV light” value ([2]; phosphate buffer, compared to without irradiation, up to)?
The value was “up to 20 fold”.

What about the solubility at 1 h ([2]; phosphate buffer, pH 7.4, 46 °C, after 1 h, read-out: aqueous solubility) of the same molecule?
The solubility at 1 h was 3.5 µg/mL.

What about the solubility at 24 h ([2]; phosphate buffer, pH 7.4, 46 °C, after 24 h) of the same molecule?
The solubility at 24 h was 3.2 µg/mL.

What about the solubility at 1 h ([2]; phosphate buffer, pH 7.4, Dark, 37 °C, shake time 1 h, read-out: Solubility) of the same molecule?
Its solubility at 1 h is 3 µg/mL.

What about the solubility at 0.5 h ([2]; phosphate buffer, pH 7.4, UV light (mercury lamp 0.5 mW/cm2), 37 °C, shake time 0.5 h, read-out: Solubilized 3) of the same molecule?
Its solubility at 0.5 h is 11.1 µg/mL.

And the solubility at 1 h ([2]; phosphate buffer, pH 7.4, UV light (mercury lamp 0.5 mW/cm2), 37 °C, shake time 1 h, read-out: Solubilized 3)?
The solubility at 1 h was 14.9 µg/mL.

What about the solubility at 3 h ([2]; phosphate buffer, pH 7.4, UV light (mercury lamp 0.5 mW/cm2), 37 °C, shake time 3 h, read-out: Solubilized 3) of the same molecule?
The solubility at 3 h was 18.4 µg/mL.

What about the solubility at 5 h ([2]; phosphate buffer, pH 7.4, UV light (mercury lamp 0.5 mW/cm2), 37 °C, shake time 5 h, read-out: Solubilized 3) of the same molecule?
Its solubility at 5 h is 24.7 µg/mL.

What about the solubility at 8 h ([2]; phosphate buffer, pH 7.4, UV light (mercury lamp 0.5 mW/cm2), 37 °C, shake time 8 h, read-out: Solubilized 3) of the same molecule?
Its solubility at 8 h is 24.2 µg/mL.

And the solubility at 1 h ([2]; phosphate buffer, pH 7.4, Visible light, 37 °C, shake time 1 h, read-out: Solubilized 3)?
Its solubility at 1 h is 4.6 µg/mL.

What about the solubility at 5 h ([2]; phosphate buffer, pH 7.4, Visible light, 37 °C, shake time 5 h, read-out: Solubilized 3) of the same molecule?
Its solubility at 5 h is 5.1 µg/mL.

What about the solubility at 1 h ([2]; phosphate buffer, pH 7.4, light intensity 4.56 mW/cm2, 365 nm LED, 37 °C, 1 h, read-out: Aqueous solubilized 3) of the same molecule?
Its solubility at 1 h is 12.3 µg/mL.

What about the solubility at 1 h ([2]; phosphate buffer, pH 7.4, light intensity 29.0 mW/cm2, 365 nm LED, 37 °C, 1 h, read-out: Aqueous solubilized 3) of the same molecule?
Its solubility at 1 h is 36.2 µg/mL.

What about the solubility at 1 h ([2]; phosphate buffer, pH 7.4, light intensity 290 mW/cm2, 365 nm LED, 37 °C, 1 h, read-out: Aqueous solubilized 3) of the same molecule?
The solubility at 1 h was 69.6 µg/mL.

And the solubility ([2]; phosphate buffer, pH 7.4, phosphate buffer, in the dark, after 0.5, 1 and 5 h at 37 °C, read-out: aqueous solubility)?
Its solubility is about 3 µg/mL.

And the solubility ([2]; phosphate buffer, pH 7.4, white-light irradiation, after 1 and 5 h, 37 °C, read-out: solubilization)?
The solubility was about 5 µg/mL.

And the “Aqueous solubilized 3” value ([2]; step 1: visible (white light, filter cutting off below 560 nm), 37 °C, 1 h)?
The value was 1.0 fold.

What about the “Aqueous solubilized 3” value ([2]; step 2: UV 365 nm LED 344 mW/cm2, 37 °C, 1 h) of the same molecule?
Its value is 35.5 fold.

What about the “Aqueous solubilized 3” value ([2]; step 3: visible, 37 °C, 1 h) of the same molecule?
Its value is 2.3 fold.

And the “Aqueous solubilized 3” value ([2]; step 4: UV 365 nm LED 344 mW/cm2, 37 °C, 1 h)?
Its value is 37.9 fold.

What about the “Aqueous solubilized 3” value ([2]; step 5: visible, 37 °C, 1 h) of the same molecule?
Its value is 2.9 fold.
